PubChem BioAssay (NCI)
Values joined by “and” are separate entries in the source; they are usually repeats but may differ in a detail not shown here. Equal values may be shown once.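 Protocol summary: plate cells (96-well), add compound at 5 concentrations, incubate 48 h, interpolate endpoints linearly. Abbreviation: GI50, concentration required for 50% inhibition of growth. TGI: total growth inhibition.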

Experiments:
Assay in all cases: DTP human tumour cell line panel, 48 h
MDA-MB-231 breast = tested on: MDA-MB-231 breast
MALME-3M melanoma = tested on: MALME-3M melanoma
SNB-19 CNS = tested on: SNB-19 CNS
UACC-62 melanoma = tested on: UACC-62 melanoma
T-47D breast = tested on: T-47D breast
CCRF-CEM leukemia = tested on: CCRF-CEM leukemia
SF-539 CNS = tested on: SF-539 CNS
K-562 leukemia = tested on: K-562 leukemia
SF-268 CNS = tested on: SF-268 CNS
A498 renal = tested on: A498 renal

Row | Compound | TGI (MDA-MB-231 breast) | TGI (MALME-3M melanoma) | TGI (SNB-19 CNS) | TGI (UACC-62 melanoma) | TGI (T-47D breast) [µM] | TGI (CCRF-CEM leukemia) | TGI (SF-539 CNS) | TGI (K-562 leukemia) | TGI (SF-268 CNS) | TGI (A498 renal) | GI50 (MDA-MB-231 breast) | GI50 (SNB-19 CNS) | GI50 (A498 renal) | GI50 (UACC-62 melanoma) | GI50 (SF-539 CNS)
1 | Nc1cc(CO)cc(Nc2nc3ccc(Cl)cc3c3[nH]c4ccccc4c23)c1 | 12 µM | 15.8 µM | 44.9 µM | 5.55 µM | 20.8 | 23.8 µM | 14.1 µM | 27.3 µM | 10.5 µM |  |  |  |  |  | 
2 | Cn1cc2ccccc2c1-c1nc(N)nc(F)n1 |  | > 100 µM | > 100 µM |  |  | > 100 µM | > 100 µM | > 100 µM | > 100 µM | 53.5 µM |  |  |  |  | 
3 | Oc1ccc(/C=C/c2cc(O)cc(O)c2)cc1 | > 100 µM |  | > 100 µM | > 100 µM | > 100 |  | > 100 µM |  | > 100 µM | > 100 µM |  |  |  |  | 
4 | OCC1CCCCCCCCCCC12SCCCS2 (configuration not stated) |  | > 100 µM | > 100 µM | > 100 µM | > 100 | > 100 µM |  | > 100 µM | > 100 µM |  |  |  |  |  | 
5 | S=C(N/N=C\C=N/NC(=S)N1CCCCC1)N1CCCCC1 | > 100 µM | > 35 µM | > 100 µM | > 100 µM |  |  | > 100 µM | > 100 µM | > 100 µM | > 100 µM |  |  |  |  | 
6 | COc1cc2c(cc1OC)C1=Cc3cc(OC)c(OC)cc3C(C)N1C=C2 (configuration not stated) |  | > 100 µM | > 100 µM | > 100 µM | > 100 | > 100 µM | > 100 µM | > 100 µM | > 100 µM | > 100 µM |  |  |  |  | 
7 | O=C(O)CSc1nnc(COc2ccc(Cl)cc2)n1-c1ccccc1 | > 100 µM | > 100 µM | > 100 µM | > 100 µM | > 100 | > 100 µM |  | > 100 µM | > 100 µM | > 100 µM |  |  |  |  | 
8 | COc1cc(-c2cc(=O)c3cc4c(cc3[nH]2)OCO4)cc(OC)c1O | > 10 µM |  | > 10 µM | > 10 µM | > 10 | > 10 µM | > 10 µM | > 10 µM | > 10 µM |  |  |  |  |  | 
9 | CC(O[Si](c1ccccc1)(c1ccccc1)C(C)(C)C)[C@H](NC(=O)OC(C)(C)C)C(=O)O[Si](c1ccccc1)(c1ccccc1)C(C)(C)C (some centres not stated) |  | 34.3 µM | 29.8 µM |  | 25.7 | 76.6 µM |  | 40.6 µM | 31.1 µM |  |  |  |  |  | 
10 | CC(=O)OCC1OC(OC(C)(C)CC/C=C(\C)[C@@H]2C/C=C(\C)CC/C=C(\C)CC2)C(O)C(O)C1OC(C)=O (some centres not stated) | > 100 µM and 38.6 µM | 56.4 µM and 34.5 µM | > 100 µM and 25 µM | > 100 µM and 30.6 µM |  | 20.8 µM and 67 µM | 82.9 µM and 33.9 µM | 61.4 µM and > 100 µM | 98.7 µM and 38.3 µM | > 100 µM and 44.8 µM | > 61.2 µM and 18.9 µM | 61.5 µM and 12.5 µM | > 100 µM and 24.4 µM | > 92.8 µM and 15.3 µM | 32.6 µM and 13.5 µM
11 | C/C(CCOC1CCCCO1)=C(\C)[Si](C)(C)C (configuration not stated) |  | > 100 µM | > 100 µM | > 100 µM |  | > 100 µM | > 100 µM | > 100 µM | > 100 µM | > 100 µM |  |  |  |  | 
12 | Cc1nc2c(sc(=S)n2-c2ccccc2)c2nc3ncccc3n12 | > 100 µM | > 100 µM | > 100 µM | > 100 µM | > 100 | > 100 µM |  | > 100 µM | > 100 µM | > 100 µM |  |  |  |  | 
13 | COc1ccc(-n2c(=O)c3[nH]cnc3n(-c3ccc(OC)cc3)c2=S)cc1 | > 100 µM |  |  | > 100 µM | > 100 | > 100 µM | > 100 µM | > 100 µM | > 100 µM | > 100 µM |  |  |  |  | 
14 | COc1ccc(-c2cc(-c3ccco3)c(C#N)c(=S)n2C2OC(COC(C)=O)C(OC(C)=O)C(OC(C)=O)C2OC(C)=O)cc1 (configuration not stated) | 16.1 µM | 16.9 µM | 19.1 µM | 14.4 µM | 21.7 |  | 4.56 µM | > 100 µM | 23.5 µM |  |  |  |  |  | 
15 | Cc1nc2cccc([N+](=O)[O-])c2c(NCCCN(C)C)c1C |  | > 31.6 µM | > 100 µM | > 100 µM | > 100 | > 75.2 µM | > 100 µM | > 76.9 µM | > 100 µM | > 54 µM |  |  |  |  | 
16 | C=C(C(=O)C(=O)Oc1ccc(Cl)cc1)C(=O)c1ccc(C)cc1 |  | > 100 µM | > 100 µM | > 100 µM |  | > 100 µM | 34.7 µM | > 100 µM | > 100 µM | > 100 µM |  |  |  |  | 
17 | CC(C)=CCOC(=O)C(C)=[N+]=[N-] | > 100 µM | > 100 µM | > 100 µM | > 100 µM | > 100 |  |  | > 100 µM | > 100 µM | > 100 µM |  |  |  |  | 
18 | COCCOCOc1ccc(OCc2ccccc2)cc1 |  | > 100 µM | > 100 µM | > 100 µM |  | > 100 µM | > 100 µM | > 100 µM | > 100 µM | 99.5 µM |  |  |  |  | 
19 | O=c1[nH]n2c(=O)cc[nH]c2c1-c1nnns1 |  | > 100 µM | > 100 µM |  |  | > 100 µM | > 100 µM | > 100 µM | > 100 µM | > 100 µM |  |  |  |  | 
20 | O=C(O)c1cc2c(cc1CC(Cc1ccc3c(c1)CCC3)C(=O)O)CCC2 (configuration not stated) | > 100 µM | > 100 µM | > 100 µM |  | > 100 | > 100 µM | > 100 µM |  | > 100 µM | > 100 µM |  |  |  |  | 
21 | Cc1cc(N(CCC#N)CCC#N)ccc1/C=N/NC(=O)c1cc(Cl)ccc1O | > 100 µM | > 100 µM |  | > 100 µM | > 100 | > 100 µM | > 100 µM |  | > 100 µM | > 100 µM |  |  |  |  | 
22 | CC1(Cl)C(=O)NC(=O)N(C2CC(N=[N+]=[N-])C(CO)O2)C1N=[N+]=[N-] (configuration not stated) |  | > 100 µM | > 100 µM | > 100 µM |  | > 100 µM | > 100 µM | > 100 µM | > 100 µM | > 100 µM |  |  |  |  | 
23 | N=C1CSC2=NC3=C(CCC/C3=C\c3ccccc3)C(c3ccccc3)N12 (configuration not stated) |  | 39.3 µM | 19.9 µM | 23 µM |  | 8.61 µM | 20 µM | 18.4 µM | 32.9 µM | 27.6 µM |  |  |  |  | 
24 | Nc1nc2cc3nc(N)c(N)nc3cc2nc1N | > 100 µM | > 100 µM | > 100 µM | > 100 µM |  | > 100 µM | > 100 µM |  | > 100 µM | > 100 µM |  |  |  |  | 
